Laboratory results from BindingDB's records for doi:10.1016/j.bmc.2008.08.012 (Philipps University Marburg, 2008).

Columns and labels:
[1] = target: T1, Dimer of Gag-Pol polyprotein [501-599] (Human immunodeficiency virus 1, UniProt P03367); assay: Enzyme Inhibition Assay; conditions: pH 5.5; 23 °C
T1 construct: 501-599
Protocol: (§1) Enzyme assay was performed at room temperature on a microplate reader (Safire2TM) using black 96-well microtiter plates purchased from Nunc. Inhibitors and substrates were previously dissolved in 4% DMSO. The hydrolysis of the substrates was recorded as increase in fluorescence intensity. IC50 values were generated by nonlinear regression analysis from plots of vi/v0 versus inhibitor concentration, in which vi is the velocity in presence, and v0 the velocity in the absence of an inhibitor. The kinetic constants were determined by the method of Lineweaver and Burk, and Ki values were consecutively calculated from the following equation: Ki = IC50/[1 + (S/Km)]. The overall error of the assays is estimated to be +/-40%.

[2] = target: Pepsin A (Sus scrofa, UniProt P00791); assay: Enzyme Inhibition Assay; conditions: 25 °C
Chain of Pepsin A (P00791 whole entry): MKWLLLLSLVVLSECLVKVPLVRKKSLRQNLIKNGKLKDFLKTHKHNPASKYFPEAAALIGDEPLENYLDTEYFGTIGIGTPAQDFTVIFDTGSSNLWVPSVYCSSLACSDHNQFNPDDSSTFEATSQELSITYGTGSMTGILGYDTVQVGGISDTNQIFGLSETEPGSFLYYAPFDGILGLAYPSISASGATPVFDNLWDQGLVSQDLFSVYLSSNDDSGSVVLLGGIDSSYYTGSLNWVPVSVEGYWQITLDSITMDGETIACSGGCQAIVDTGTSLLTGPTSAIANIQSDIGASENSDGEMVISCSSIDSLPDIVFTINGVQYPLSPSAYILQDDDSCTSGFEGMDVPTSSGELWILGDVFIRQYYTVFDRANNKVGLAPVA
Protocol: as §1

SMILES	IC50 [1] [µM]	IC50 [2] [µM]
O=S(=O)(c1ccccc1)N(CCCNCCCN(Cc1ccccc1)S(=O)(=O)c1ccccc1)Cc1ccccc1 [phenyl-substituted sulfonamides, 6c]	> 250	> 250
O=C(Cc1ccccc1)N(CCNCCN(Cc1ccccc1)C(=O)Cc1ccccc1)Cc1ccccc1 [carboxamide, 12a]	> 250	> 250
O=C(Cc1ccccc1)N(CCCNCCCN(Cc1ccccc1)C(=O)Cc1ccccc1)Cc1ccccc1 [carboxamide, 12c]	> 250	> 250
Nc1ccc(S(=O)(=O)N(CCCNCCCN(Cc2ccccc2)S(=O)(=O)c2ccc(N)cc2)Cc2ccccc2)cc1 [phenyl-substituted sulfonamides, 6f]	> 250	–
O=C(Cc1ccccc1)N(CCCNCCN(Cc1ccccc1)C(=O)Cc1ccccc1)Cc1ccccc1 [carboxamide, 12b]	> 250	> 250
Nc1ccc(S(=O)(=O)N(CCCNCCN(Cc2ccccc2)S(=O)(=O)c2ccc(N)cc2)Cc2ccccc2)cc1 [phenyl-substituted sulfonamides, 6e]	> 250	> 250
